Test results reported in patent US11607383B2, “Conductive polymer microneedle arrays for electronically-controlled drug release” (University of Washington, priority 2019, dated 2023).

Columns and labels:
[1] = test system: activated BV2 murine microglia; assay: In vitro neuroinflammation assay (NO by Griess, cytokines by Luminex); format: cell-based; details: for NO release normalized to viable cells: DC experiment
Experimental: Bioactivity of electrically released drug was tested in an in vitro neuroinflammation model, in which drugs were released into wells of activated BV2 murine microglia. Healthy BV2 cells were seeded in 12-well plates at a density of 100,000 cells/well, in 1.6 mL of Dulbecco's modified eagle media (DMEM, Gibco) with 4.5 g/L D-glucose, 584 mg/L L-glutamine, and 110 mg/L sodium pyruvate (Invitrogen). The DMEM was supplemented with 5% fetal bovine serum (Invitrogen) and 2% anti-mycotic/anti-biotic (Invitrogen). Following seeding, the cells were incubated at 37° C. overnight to allow for settling and adhesion. Cells in activated treatment groups were activated by the replacement of media with fresh DMEM containing 0.005% interferon gamma (Ifn-γ, Invitrogen) and 1% lipopolysaccharide (LPS, ThermoFisher). Unactivated controls received normal fresh DMEM. Cells were then incubated for 1 hour before application of treatment in groups of n=6, in order to simulate realistic conditions in which there is a duration between traumatic SCI occurrence and access to treatment.
Treatment was applied transdurally from microneedles into the cell media though the transdural insert model as previously described in the In Vitro Transdural Release section. Diagrams of experimental conditions can be found in FIGS. 5A-5G. Microneedles were similarly applied manually, then underwent a potentiostatic or cyclic electrical stimulation. Direct current potential was applied for only 2 minutes to minimize electrical imbalance applied to the cells, while delivering sufficient drug to achieve therapeutic effect. Cyclic voltammetry was applied for 15 cycles, equating to 10 minutes. Epidural drug solution controls were similarly applied to the neuroinflammation model by pipetting over the transdural insert. In addition, a subdural solution control was introduced to the neuroinflammation studies in which the Dexa solution is applied directly to the cell media, bypassing the transdural insert.
Following 3 days of incubation, cell media was assayed for markers of inflammation. Free radical nitric oxide (NO) was quantified using a Griess reagent kit (Invitrogen) that detects NO reduced to nitrites in cell medias. Colorimetric NO quantification was performed following the protocols provided in the Griess reagent kit. Pro-inflammatory cytokines were quantified using a Luminex Magpix Multiplexing assay (Millipore). Cytokines quantified include interleukin-1-beta (IL-1β), interleukin-6 (IL-6), and tumor necrosis factor alpha (TNF-α). Cells treated in the CV stimulated experiment were additionally quantified for the release of monocyte chemoattractant protein 1 (MCP-1). The Luminex multiplexing assays were performed following the protocol provided in the kit.

BV2 murine microglia = format: cell-based; details: subdural solution, DC experiment, 3 days incubation
Experimental: Bioactivity of electrically released drug was tested in an in vitro neuroinflammation model, in which drugs were released into wells of activated BV2 murine microglia. Healthy BV2 cells were seeded in 12-well plates at a density of 100,000 cells/well, in 1.6 mL of Dulbecco's modified eagle media (DMEM, Gibco) with 4.5 g/L D-glucose, 584 mg/L L-glutamine, and 110 mg/L sodium pyruvate (Invitrogen). The DMEM was supplemented with 5% fetal bovine serum (Invitrogen) and 2% anti-mycotic/anti-biotic (Invitrogen). Following seeding, the cells were incubated at 37° C. overnight to allow for settling and adhesion. Cells in activated treatment groups were activated by the replacement of media with fresh DMEM containing 0.005% interferon gamma (Ifn-γ, Invitrogen) and 1% lipopolysaccharide (LPS, ThermoFisher). Unactivated controls received normal fresh DMEM. Cells were then incubated for 1 hour before application of treatment in groups of n=6, in order to simulate realistic conditions in which there is a duration between traumatic SCI occurrence and access to treatment. […]
Cell viability was measured using an MTS assay (CellTiter 96® AQueous One Solution Cell Proliferation Assay, Promega). […] The incubation was followed by detection of absorbance at 490 nm. The MTS absorbance in each group was normalized to the absorbance of the unactivated group.

[2] = epidural solution, CV experiment

## C[C@@H]1C[C@H]2[C@@H]3CCC4=CC(=O)C=C[C@]4(C)[C@@]3(F)[C@@H](O)C[C@]2(C)[C@@]1(O)C(=O)COP(=O)(O)O [Dexa solution, dexamethasone phosphate]
[1]; [2]
  MCP-1 release normalized for viable cells: did not see the same decrease
  NO release normalized for viable cells: did not see similar reductions in NO release
[1]; epidural solution
  NO release normalized to viable cells: did not demonstrate the same decrease
[1]; subdural solution
  NO release normalized to viable cells: significant decrease
BV2 murine microglia
  relative cell viability (MTS): slight decreases in viability, though not significant
